Reference: US20260325540A1 (priority 2023, published 2026)

What follows are compounds tested against HCoV-229E 3CL protease (Human coronavirus 229E, UniProt P0C6U2) (assay: FRET based protease assay, HCoV-229E 3CL). Conditions: 229E IC50, 6 nM H229E-CoV Chis-3CLpro, 6 μM peptide 1 substrate, 25° C., 1.5 hrs, pH 7.5.
Chain of HCoV-229E 3CL protease (P0C6U2 2966-3267): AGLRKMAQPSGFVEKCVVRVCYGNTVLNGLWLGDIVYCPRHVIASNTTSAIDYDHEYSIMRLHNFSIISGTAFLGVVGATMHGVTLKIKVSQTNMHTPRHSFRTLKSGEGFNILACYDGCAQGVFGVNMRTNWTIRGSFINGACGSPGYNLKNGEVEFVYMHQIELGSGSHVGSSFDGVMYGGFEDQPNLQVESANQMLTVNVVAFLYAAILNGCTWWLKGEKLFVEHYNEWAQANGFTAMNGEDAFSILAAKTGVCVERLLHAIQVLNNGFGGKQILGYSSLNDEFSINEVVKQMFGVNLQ
Format: biochemical
In the case of CC(C)(C)NC(=O)[C@H]1CCCC[C@H]2CNC(=O)[C@H]2C[C@@H](C#N)NC(=O)[C@@H]2[C@@H]3[C@H](CN2C1=O)C3(C)C [Example 167], the IC50 is reported as 100 to 1000 nM.
In the case of CC1(C)[C@@H]2[C@H]3C(=O)N[C@H](C#N)C[C@@H]4C(=O)NC[C@@H]4CCCC[C@H](NC(=O)c4ccc(F)cc4F)C(=O)N3C[C@@H]21 [Example 103], the IC50 is reported as < 100 nM.
CC(C)C[C@@H]1NC(=O)CCCCCC[C@H]2CNC(=O)[C@@H]2C[C@@H](C=O)NC1=O [Example 48] was tested, and the IC50 was < 100 nM.
With CC(C)C[C@@H]1NC(=O)[C@@H](C2CCCC2)CCCC[C@H]2CNC(=O)[C@H]2C[C@@H](C#N)NC1=O [Example 41] the IC50 was > 20000 nM.
CC(C)C[C@@H]1NC(=O)CCCC[C@H]2CNC(=O)[C@@H]2C[C@@H](C#N)NC1=O [Example 24] showed an IC50 of 100 to 1000 nM.
CC(C)C[C@@H]1NC(=O)[C@@H](NC(=O)OC(C)(C)C)CCC[C@@H]2CNC(=O)[C@@H]2C[C@@H](C=O)NC1=O [Example 16] showed an IC50 of 1000 to 20000 nM.
CC1(C)[C@@H]2[C@H]3C(=O)N[C@H](C#N)C[C@H]4C(=O)NC[C@@H]4CCCCC(=O)N3C[C@@H]21 [Example 25] showed an IC50 of 100 to 1000 nM.
With CN1C(=O)[C@@H](NC(=O)C(C)(C)C)CCCC[C@H]2CNC(=O)[C@H]2C[C@@H](C#N)NC(=O)[C@@H]1CC(C)(C)C [Example 78] the IC50 was 100 to 1000 nM.
In the case of CC1(C)[C@@H]2[C@H]3C(=O)N[C@H](C#N)C[C@@H]4C(=O)NC[C@@H]4CCCC[C@H](NS(=O)(=O)C4CC4)C(=O)N3C[C@@H]21 [Example 156], the IC50 is reported as < 100 nM.
With CC1(C)[C@@H]2[C@H]3C(=O)N[C@H](C#N)C[C@@H]4C(=O)NCC[C@@H]4CCCC[C@H](NC(=O)OC4CCCC4)C(=O)N3C[C@@H]21 [Example 124] the IC50 was < 100 nM.
With N#C[C@@H]1C[C@@H]2C(=O)NC[C@@H]2CCCC[C@H](NC(=O)C(F)(F)F)C(=O)N2C[C@@H]3CCC[C@@H]3[C@H]2C(=O)N1 [Example 88] the IC50 was < 100 nM.
For CC(C)(C)C(=O)N[C@H]1CCCC[C@H]2CNC(=O)[C@H]2C[C@@H](C#N)NC(=O)[C@@H]2[C@H]3CCC[C@H]3CN2C1=O [Example 70], the IC50 was < 100 nM.
With CC(C)(C)OC(=O)NN1CCCC[C@H]2CNC(=O)[C@H]2C[C@@H](C#N)NC(=O)[C@@H]2[C@@H]3[C@H](CN2C1=O)C3(C)C [Example 168] the IC50 was 1000 to 20000 nM.
With CC(C)(C)OC(=O)N[C@H]1CCCC[C@H]2CNC(=O)[C@H]2C[C@@H](C#N)NC(=O)[C@@H]2CC3(CCN2C1=O)CC3 [Example 132] the IC50 was < 100 nM.
For CC(C)C[C@@H]1NC(=O)[C@H](Cc2ccccc2)CCC[C@H]2CNC(=O)[C@H]2C[C@@H](C=O)NC1=O [Example 12], the IC50 was < 100 nM.
CC(C)(C)C(=O)N[C@H]1C/C=C/[C@H]2CNC(=O)[C@H]2C[C@@H](C#N)NC(=O)[C@@H]2[C@@H]3[C@H](CN2C1=O)C3(C)C [Example 63] was tested, and the IC50 was < 100 nM.
CC1(C)[C@@H]2[C@H]3C(=O)N[C@H](C#N)C[C@@H]4C(=O)NC[C@@H]4/C=C/CC[C@H](NC(=O)C4CC(F)(F)C4)C(=O)N3C[C@@H]21 [Example 83] was tested, and the IC50 was < 100 nM.
CC1(C)[C@@H]2[C@H]3C(=O)N[C@H](C#N)C[C@@H]4C(=O)NC[C@@H]4CCCC[C@H](NC(=O)c4ccc(F)cc4)C(=O)N3C[C@@H]21 [Example 82] was tested, and the IC50 was < 100 nM.
CC1(C)[C@@H]2[C@H]3C(=O)N[C@H](C#N)C[C@@H]4C(=O)NC[C@@H]4CCCC[C@H](NC(=O)C4CCC4)C(=O)N3C[C@@H]21 [Example 76] was tested, and the IC50 was < 100 nM.
With CC(C)(C)C(=O)N[C@H]1CCCC[C@H]2CNC(=O)[C@@H]2C[C@@H](C#N)NC(=O)[C@@H]2[C@@H]3[C@H](CN2C1=O)C3(C)C [Example 67] the IC50 was 100 to 1000 nM.
CC(C)C[C@@H]1NC(=O)[C@@H](NC(=O)C(C)(C)C)CC/C=C/[C@H]2CNC(=O)[C@H]2C[C@@H](C#N)NC1=O [Example 58] was tested, and the IC50 was < 100 nM.
For CC1(C)[C@@H]2[C@H]3C(=O)N[C@H](C#N)C[C@@H]4C(=O)NC[C@@H]4CCCC[C@H](NS(=O)(=O)c4ccc(F)cc4F)C(=O)N3C[C@@H]21 [Example 157], the IC50 was < 100 nM.
In the case of CC1(C)[C@@H]2[C@H]3C(=O)N[C@H](C#N)C[C@@H]4C(=O)NC[C@@H]4CCCC[C@H](NS(=O)(=O)c4ccccc4)C(=O)N3C[C@@H]21 [Example 154], the IC50 is reported as < 100 nM.
CC(C)(C)OC(=O)N[C@H]1CCC[C@H]2CCNC(=O)[C@H]2C[C@@H](C#N)NC(=O)[C@@H]2[C@H]3CCC[C@H]3CN2C1=O [Example 100] showed an IC50 of 100 to 1000 nM.
With CC(C)(C)OC(=O)N[C@H]1CC/C=C\[C@H]2CCNC(=O)[C@H]2CC(C#N)NC(=O)[C@@H]2[C@H]3CCC[C@H]3CN2C1=O (stereo partly drawn) [Example 97] the IC50 was < 100 nM.
In the case of CC1(C(=O)N[C@H]2CCCC[C@H]3CNC(=O)[C@H]3C[C@@H](C#N)NC(=O)[C@@H]3[C@@H]4[C@H](CN3C2=O)C4(C)C)CCC1 [Example 118], the IC50 is reported as < 100 nM.
For CC1(C)[C@@H]2[C@H]3C(=O)N[C@H](C#N)C[C@@H]4C(=O)NCC[C@@H]4CCCC[C@H](NC(=O)C45CC(C(F)(F)F)(C4)C5)C(=O)N3C[C@@H]21 [Example 135], the IC50 was 100 to 1000 nM.
CC(C)C[C@@H]1NC(=O)[C@@H](NC(=O)OC(C)(C)C)CCCC[C@H]2CNC(=O)[C@H]2C[C@@H](C#N)NC1=O [Example 56] was tested, and the IC50 was < 100 nM.
For CC(C)C[C@@H]1NC(=O)[C@@H](Cc2ccccc2)CCCC[C@H]2CNC(=O)[C@H]2C[C@@H](C#N)NC1=O [Example 39], the IC50 was 100 to 1000 nM.
Cc1nc(C(=O)N[C@H]2CCCC[C@H]3CNC(=O)[C@H]3C[C@@H](C#N)NC(=O)[C@@H]3[C@@H]4[C@H](CN3C2=O)C4(C)C)cs1 [Example 113] was tested, and the IC50 was 100 to 1000 nM.
With CC(C)(C)CC(=O)N[C@H]1CCCC[C@H]2CCNC(=O)[C@H]2C[C@@H](C#N)NC(=O)[C@@H]2[C@H]3CCC[C@H]3CN2C1=O [Example 95] the IC50 was < 100 nM.
In the case of N#C[C@@H]1C[C@@H]2C(=O)NC[C@@H]2CCCC[C@H](Nc2nccc(C(F)(F)F)n2)C(=O)N2C[C@@H]3CCC[C@@H]3[C@H]2C(=O)N1 [Example 165], the IC50 is reported as 100 to 1000 nM.
In the case of CC1(C)[C@@H]2[C@H]3C(=O)N[C@H](C#N)C[C@@H]4C(=O)NCC[C@@H]4CCCC[C@H](NC(=O)c4ccc(F)cc4F)C(=O)N3C[C@@H]21 [Example 129], the IC50 is reported as < 100 nM.
For CC(C)C[C@@H]1NC(=O)CCCCC[C@H]2CCNC(=O)[C@@H]2C[C@@H](C=O)NC1=O [Example 34], the IC50 was 100 to 1000 nM.
With CC(C)C[C@@H]1NC(=O)C(OC2CCCCC2)CCC[C@H]2CNC(=O)[C@@H]2C[C@@H](C#N)NC1=O (stereo partly drawn) [Example 23] the IC50 was > 20000 nM.
In the case of CC(C)C[C@@H]1NC(=O)CCCCC[C@H]2CNC(=O)[C@H]2C[C@@H](C#N)NC1=O [Example 38], the IC50 is reported as 100 to 1000 nM.
In the case of CC(C)C[C@@H]1NC(=O)[C@@H](C2CCCC2)CCC[C@@H]2CNC(=O)[C@@H]2C[C@@H](C=O)NC1=O [Example 14], the IC50 is reported as 100 to 1000 nM.
For CC(C)(C)OC(=O)N[C@H]1CCCC[C@H]2CCNC(=O)[C@H]2C[C@@H](C#N)NC(=O)[C@@H]2[C@@H]3[C@H](CN2C1=O)C3(C)C [Example 110], the IC50 was < 100 nM.
For CC1(C)[C@@H]2[C@H]3C(=O)N[C@H](C#N)C[C@@H]4C(=O)NC[C@@H]4CCCC[C@H](NC(=O)c4ccncn4)C(=O)N3C[C@@H]21 [Example 91], the IC50 was < 100 nM.
CC(C)(C)C[C@@H]1NC(=O)[C@@H](NC(=O)c2ccc(Cl)c(Cl)c2)CCCC[C@H]2CNC(=O)[C@H]2C[C@@H](C#N)NC1=O [Example 136] was tested, and the IC50 was < 100 nM.
CC(C)C[C@@H]1NC(=O)CCCC[C@H]2CNC(=O)[C@@H]2C[C@@H](C=O)NC1=O [Example 4] was tested, and the IC50 was < 100 nM.
In the case of CC(C)C[C@@H]1NC(=O)[C@@H](Cc2ccccc2)CCCC[C@@H]2CNC(=O)[C@@H]2C[C@@H](C=O)NC1=O [Example 35], the IC50 is reported as 1000 to 20000 nM.
In the case of CC1(C)[C@@H]2[C@H]3C(=O)N[C@H](C#N)C[C@@H]4C(=O)NC[C@@H]4CCCC[C@H](NC(=O)C4CCOCC4)C(=O)N3C[C@@H]21 [Example 85], the IC50 is reported as < 100 nM.
N#C[C@@H]1C[C@@H]2C(=O)NC[C@@H]2/C=C/CC[C@H](NC(=O)C(F)(F)F)C(=O)N2C[C@@H]3CCC[C@@H]3[C@H]2C(=O)N1 [Example 101] was tested, and the IC50 was < 100 nM.
Work on CCC(C)(C)[C@@H]1NC(=O)[C@@H](NC(=O)OC(C)(C)C)CCCC[C@H]2CNC(=O)[C@H]2C[C@@H](C#N)NC1=O [Example 145] yielded an IC50 of 1000 to 20000 nM.
CC(C)C[C@@H]1NC(=O)[C@@H](Cc2ccc(F)cc2)CCCC[C@@H]2CNC(=O)[C@@H]2C[C@@H](C#N)NC1=O [Example 42] showed an IC50 of 100 to 1000 nM.
Compound CC(C)(C)C(=O)N[C@H]1CCCC[C@H]2CNC(=O)[C@H]2C[C@@H](C#N)NC(=O)[C@H](C2CCCC2)NC1=O [Example 80] has an IC50 of 100 to 1000 nM.
For CC(C)(C)COC(=O)N[C@H]1CCCC[C@H]2CNC(=O)[C@H]2C[C@@H](C#N)NC(=O)[C@@H]2[C@@H]3[C@H](CN2C1=O)C3(C)C [Example 106], the IC50 was < 100 nM.
With N#C[C@@H]1C[C@@H]2C(=O)NC[C@@H]2CCCC[C@H](NC(=O)C2(C(F)(F)F)CC2)C(=O)N2CCC3(CC3)C[C@H]2C(=O)N1 [Example 151] the IC50 was < 100 nM.
In the case of CC(C)(C)NC(=O)[C@@H]1CCCC[C@H]2CNC(=O)[C@H]2C[C@@H](C#N)NC(=O)[C@@H]2[C@@H]3[C@H](CN2C1=O)C3(C)C [Example 166], the IC50 is reported as 1000 to 20000 nM.
For CC1(C)[C@@H]2[C@H]3C(=O)N[C@H](C#N)C[C@@H]4C(=O)NC[C@@H]4CCCC[C@H](NC(=O)c4cncnc4)C(=O)N3C[C@@H]21 [Example 107], the IC50 was < 100 nM.
For CC(C)C[C@@H]1NC(=O)CCCCC[C@H]2CNC(=O)[C@H]2C[C@@H](C=O)NC1=O [Example 30], the IC50 was < 100 nM.
CC1(C)[C@@H]2[C@H]3C(=O)N[C@H](C#N)C[C@@H]4C(=O)NC[C@@H]4CCCC[C@H](NC(=O)OC4(C(F)(F)F)CCC4)C(=O)N3C[C@@H]21 [Example 152] was tested, and the IC50 was < 100 nM.
For N#C[C@@H]1C[C@@H]2C(=O)NC[C@@H]2CCCC[C@H](NC(=O)OC2CCCC2)C(=O)N2C[C@@H]3CCC[C@@H]3[C@H]2C(=O)N1 [Example 94], the IC50 was < 100 nM.
Compound CC(C)C[C@@H]1NC(=O)[C@@H](Cc2ccccc2)CCC[C@H]2CNC(=O)[C@@H]2C[C@@H](C=O)NC1=O [Example 17] has an IC50 of 100 to 1000 nM.
CC(C)(C)OC(=O)N[C@H]1CCCC[C@H]2CNC(=O)[C@H]2C[C@@H](C#N)NC(=O)[C@@H]2[C@H]3CC[C@H](CC3)N2C1=O [Example 111] showed an IC50 of 100 to 1000 nM.
CC(C)(C)OC(=O)N[C@@]1(C)CCCCC[C@H]2CNC(=O)[C@H]2C[C@@H](C#N)NC(=O)[C@@H]2[C@@H]3[C@H](CN2C1=O)C3(C)C [Example 126] was tested, and the IC50 was > 20000 nM.
